Where two headings read alike, the source gives them in different places. Marks after values point to notes of the source that are not given here.

For one data set, the system named is Tg2576 mice. The experiment in a line: Contextual fear conditioning in Tg2576 mice. In kind it is in vivo, mouse. The following applies: 9-month-old Tg2576 mice, feeding pellets for 12 weeks. As to the method:
Groups of Tg2576 mice overexpressing the 695-amino acid isoform of human amyloid precursor protein containing a Lys670→Asn, Met671→Leu mutation (Hsiao, K. Science 1996) and wildtype control mice (13-21 per phenotype) were conditioned on day 1 by placing a subject mouse in a contextual fear conditioning chamber (Med Associates, […], Vt.). Exploration was allowed for 2 min, and an auditory cue was presented for 15 s accompanied by an electrical foot shock during the last 2 s. This procedure was repeated and mice were removed from the chamber after 30 s. Twenty hours later, mice were returned to the chamber in which conditioning occured, and their freezing behaviour (fear) was monitored. Freezing was defined as the lack of all movements, except those required for breathing (Comery, T. A., et al. Journal of Neuroscience, 2005). Data were analysed by two-way ANOVA in the S programming environment, followed by Fischer's least significant difference (LSD) pairwise comparison of group means at the p<0.05 significance level.
The contextual fear conditioning paradigm is a form of Pavlovian learning in which an association is made between stimuli and their aversive consequences. Studies of brain function implicate the amygdala in regulating fear, and the hippocampus in regulating the learning of the context in which a fearful event occurred.
The brain circuitry in wild type mice is intact and they are better able to associate an aversive foot shock with the context or environment in which the shock took place. They therefore show more freezing. Transgenic Alzheimer mice have compromised brain circuitry due to the toxic effects of amyloid-beta protein. They are therefore less able to associate an aversive shock with a context and show less freezing.
A substance that reverses the toxic effects of amyloid-beta in Alzheimer's mice will help in reconsolidating the impaired brain circuitry so that these mice begin to show more fear (freezing behavior) after treatment. This paradigm is therefore a robust method for showing the effect of drug candidate molecules in Alzheimer mice.

On the set-up of data set [1]: Detection in brain after i.v. administration: key to the marks not given beside the values. The following applies: mouse, in vivo.
Another data set addresses Aβ1-42 peptide (Homo sapiens, UniProt P05067). Briefly: Thioflavin T (Thio T)-assay of Aβ aggregation. It counts as biochemical.
Another data set is described as follows: in vitro. The following applies: human.
Data set [2] in a line: Detection of compounds in brain after in vivo administration.
The test system of the next data set is 5XFAD mice. Briefly: Nest building behaviour in 5XFAD mice. It counts as in vivo, mouse. As to the method:
3a: Nestlet usage; 3b: Nestlet quality score.
One hour before the dark phase, mice were housed individually in a cage with wood-chip bedding material. Each mouse was given 3 g of nestlet material made of compressed cotton (Lillico Biotech, UK). The amount of intact, i.e. non-used, nesting material was weighed after 16 hours and nest building was assessed using the following rating scale (Deacon et al., 2006, Tomida et al., 2009): 1, >90% intact; 2, 50-90% intact; 3, 10-50% intact: 4, 0-10% intact, but flat nest; 5, 0-10%, with nests higher than the mice. The amount of intact nesting material was weighed. The data were non-normally distributed.
Non normally distributed data were analyzed by a Kruskal Wallis test. A post-hoc test using Mann-Whitney tests with Bonferroni corrections was then used for group comparisons.
Nest building is one of several species-typical behavior in mice seen in semi-naturalistic situations. […] Alzheimer's disease in 5XFAD mice will damage these areas, leading to memory impairments in some standard cognitive tests, and to an impairment of species-typical behaviors like nesting.
The brain circuitry of wild type mice is intact so they show robust nest building behavior. Transgenic 5XFAD on the other hand have impaired brain circuitry due to the noxious effects of human amyloid-beta protein. They are therefore less able to fulfill this important house-keeping species typical behavior (Deacon R M. (2006): Assessing nest building in mice. Nat Protoc. 2006; 1(3):1117-9; Tomida et al (2009): Usp46 is a quantitative trait gene regulating mouse immobile behavior in the tail suspension and forced swimming tests. Nat Genet. 2009 June; 41(6):688-95. Epub 2009 May 24.).

Where [3] appears, read: transgenic and wild-type mice vs control mice.

Chain of Aβ1-42 peptide (P05067 672-713): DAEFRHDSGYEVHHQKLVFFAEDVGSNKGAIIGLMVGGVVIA

For orientation: IC50 means the concentration that inhibits the measured activity by half. Turning to `CN(C)c1ccc(N=Nc2ccc(N)cc2)cc1` [Compound 9, 4-((4-aminophenyl)diazenyl)-N,N-dimethylaniline], the “Contextual memory (freezing behaviour)” value in the data set with Tg2576 mice is “improvement”. In data set [1] (iv, 5 mg/kg), the “Detection in brain after i.v. administration” value is recorded as “++”. Moreover, in data set [1] (po), the “Detectability after oral administration” value is on record as “excellent”; the “Detection in brain after oral administration, feeding pellet preparation” value is “++^a)/+^b)”; the “Detection in brain after oral administration, oral gavage administration” value was “++^a)/+^b)”. Besides, half-maximal inhibition at Aβ1-42 peptide (IC50) was put at 2100 nM. Further, the IC50 in “in vitro” is more than 100000 nM.

Take `O=[N+]([O-])c1ccc(N=Nc2ccc(Nc3ccccc3)cc2)cc1` [Compound 2, 4-((4-nitrophenyl)diazenyl)-N-phenylaniline]: in the data set with Tg2576 mice, the “Contextual memory (freezing behaviour)” value is listed as “improvement”. The “Detection in brain after i.v. administration” value in data set [2] (B6C3 mouse, 5 mg/kg body weight i.v. once, brain samples) was “++”. Moreover, the “Detection in brain after oral administration, feeding pellet preparation” value in data set [2] (mouse, brain samples after one week feeding) is listed as “++^a), b)”. Also, the “Detection in brain after oral administration, oral gavage administration” value in data set [2] (mouse, five to seven doses over two or three days, sampling 30 min. after last application) is “++^a), b)”. Further, the IC50 on Aβ1-42 peptide (30 μM Aβ1-42 peptide, 48 h at 37° C., vs DMSO control, read-out: ThioT: IC50) stood at 1700 nM. For the same compound, the IC50 at 48 h in “in vitro” is more than 100000 nM. Further, the Nest building behavior entry in the data set with 5XFAD mice (5XFAD mice, pelleted mouse chow for 8.5 months) was “improved”. The “Nest building behavior in transgenic mice” value in the data set on 5XFAD mice (transgenic 5XFAD mice, higher concentration (625 mg/kg feed) vs control mice) is “significantly enhanced”. In the data set on 5XFAD mice (setting [3]), the “Nest building behavior (nestlet usage, FIG. 3a)” value was “increased” and the “Nestlet quality score (FIG. 3b)” value is “increases”.
